{"source": "ChEMBL document CHEMBL5705890", "about": "“Antitumor activity of an allosteric inhibitor of centromere-associated protein-E” (Proc Natl Acad Sci U S A, 2010)", "key": {"[1]": {"target": "Centromere-associated protein E (Homo sapiens) (UniProt Q02224)", "sequence (Q02224 whole entry, the tested form may be a part)": "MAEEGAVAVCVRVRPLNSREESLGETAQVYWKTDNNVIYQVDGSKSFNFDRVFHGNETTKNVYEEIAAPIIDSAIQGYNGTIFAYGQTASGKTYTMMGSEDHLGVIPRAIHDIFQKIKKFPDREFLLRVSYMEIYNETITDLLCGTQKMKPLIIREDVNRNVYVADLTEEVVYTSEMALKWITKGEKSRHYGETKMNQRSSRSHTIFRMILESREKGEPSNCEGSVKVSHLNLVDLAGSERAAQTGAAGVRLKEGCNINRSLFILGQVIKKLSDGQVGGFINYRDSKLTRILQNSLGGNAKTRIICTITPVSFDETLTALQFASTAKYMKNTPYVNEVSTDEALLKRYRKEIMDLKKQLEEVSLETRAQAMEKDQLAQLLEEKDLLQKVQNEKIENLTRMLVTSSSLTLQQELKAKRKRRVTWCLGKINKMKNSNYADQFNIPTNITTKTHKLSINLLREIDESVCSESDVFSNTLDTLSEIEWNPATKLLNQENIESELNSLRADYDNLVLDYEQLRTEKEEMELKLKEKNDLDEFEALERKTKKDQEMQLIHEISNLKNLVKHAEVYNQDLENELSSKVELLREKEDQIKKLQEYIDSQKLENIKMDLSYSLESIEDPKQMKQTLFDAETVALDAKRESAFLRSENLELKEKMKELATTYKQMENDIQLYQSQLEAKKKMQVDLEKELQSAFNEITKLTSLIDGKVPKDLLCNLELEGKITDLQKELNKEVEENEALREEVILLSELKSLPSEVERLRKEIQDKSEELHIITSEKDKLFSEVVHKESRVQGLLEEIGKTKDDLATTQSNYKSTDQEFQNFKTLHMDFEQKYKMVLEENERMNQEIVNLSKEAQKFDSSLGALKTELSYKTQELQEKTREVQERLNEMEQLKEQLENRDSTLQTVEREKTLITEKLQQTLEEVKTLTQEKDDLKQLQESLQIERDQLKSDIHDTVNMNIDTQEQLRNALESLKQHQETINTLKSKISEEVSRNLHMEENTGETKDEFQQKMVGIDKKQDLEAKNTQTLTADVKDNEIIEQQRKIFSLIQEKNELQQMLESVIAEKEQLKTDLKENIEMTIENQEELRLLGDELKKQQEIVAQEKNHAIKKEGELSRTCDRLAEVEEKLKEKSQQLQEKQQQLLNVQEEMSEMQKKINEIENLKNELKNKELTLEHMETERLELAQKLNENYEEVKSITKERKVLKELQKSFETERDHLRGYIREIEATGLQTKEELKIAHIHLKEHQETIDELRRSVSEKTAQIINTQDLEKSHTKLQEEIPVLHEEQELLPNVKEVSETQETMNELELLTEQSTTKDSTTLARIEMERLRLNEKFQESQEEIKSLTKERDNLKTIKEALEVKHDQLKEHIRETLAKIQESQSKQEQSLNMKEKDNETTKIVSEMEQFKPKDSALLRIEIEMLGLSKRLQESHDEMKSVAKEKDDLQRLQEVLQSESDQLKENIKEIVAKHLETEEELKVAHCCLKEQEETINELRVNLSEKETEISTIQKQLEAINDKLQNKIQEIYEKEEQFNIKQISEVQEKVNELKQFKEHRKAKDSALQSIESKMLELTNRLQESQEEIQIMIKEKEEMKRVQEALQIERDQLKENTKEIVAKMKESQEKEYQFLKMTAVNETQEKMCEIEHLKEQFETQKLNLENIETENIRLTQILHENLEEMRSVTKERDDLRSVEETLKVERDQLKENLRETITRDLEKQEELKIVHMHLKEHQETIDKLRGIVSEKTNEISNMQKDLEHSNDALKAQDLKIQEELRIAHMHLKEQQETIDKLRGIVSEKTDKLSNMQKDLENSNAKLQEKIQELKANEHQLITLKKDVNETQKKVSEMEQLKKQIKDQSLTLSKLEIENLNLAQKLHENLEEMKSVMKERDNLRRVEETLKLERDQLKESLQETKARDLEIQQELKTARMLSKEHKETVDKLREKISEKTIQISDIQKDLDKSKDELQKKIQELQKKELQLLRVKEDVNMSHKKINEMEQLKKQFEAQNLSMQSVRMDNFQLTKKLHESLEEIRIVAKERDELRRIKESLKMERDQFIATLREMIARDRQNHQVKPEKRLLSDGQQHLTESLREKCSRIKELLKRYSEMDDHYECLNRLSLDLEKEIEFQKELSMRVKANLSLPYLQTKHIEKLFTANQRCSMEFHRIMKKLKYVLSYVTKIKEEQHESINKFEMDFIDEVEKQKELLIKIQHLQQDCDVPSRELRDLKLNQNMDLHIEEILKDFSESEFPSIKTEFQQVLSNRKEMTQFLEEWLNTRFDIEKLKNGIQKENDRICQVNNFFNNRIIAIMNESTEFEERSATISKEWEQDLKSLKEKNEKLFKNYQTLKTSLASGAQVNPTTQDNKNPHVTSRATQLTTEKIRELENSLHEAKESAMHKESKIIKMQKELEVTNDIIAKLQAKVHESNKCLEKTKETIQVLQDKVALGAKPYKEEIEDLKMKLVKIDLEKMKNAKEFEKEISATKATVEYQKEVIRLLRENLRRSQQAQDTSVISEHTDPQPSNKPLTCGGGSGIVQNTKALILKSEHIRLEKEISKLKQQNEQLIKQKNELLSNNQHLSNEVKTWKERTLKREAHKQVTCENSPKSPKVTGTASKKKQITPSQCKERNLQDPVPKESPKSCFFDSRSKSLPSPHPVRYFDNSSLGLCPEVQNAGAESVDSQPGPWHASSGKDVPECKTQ", "assay": "Competitive-like binding affinity to C-terminal 6-his-tagged CENP-E (2 to 340 residues)(unknown origin) expressed in Escherichia coli BL21(DE3) in presence of ATP"}, "[2]": {"target": "Centromere-associated protein E (Homo sapiens) (UniProt Q02224)", "assay": "Binding affinity to C-terminal 6-his-tagged CENP-E (2 to 340 residues)(unknown origin) expressed in Escherichia coli BL21(DE3) photo-exposed for 30 mins by LC-MS analysis"}, "[3]": {"target": "Centromere-associated protein E (Homo sapiens) (UniProt Q02224)", "assay": "Uncompetitive-like binding affinity to C-terminal 6-his-tagged CENP-E (2 to 340 residues)(unknown origin) expressed in Escherichia coli BL21(DE3) in presence of ATP"}, "HCC1954 [4]": {"tested_on": "HCC1954", "assay": "Induction of morphological change in human HCC1954 cells expressing GFP-histone 2B assessed as bipolar spindle formation of chromosomes at 0.2 ug/ml measured for 5 days on every 15 mins by PI staining based analysis", "assay_type": "functional, cell-based", "settings": "dose 0.2 µg/ml, time 5.0 day"}, "[5]": {"target": "Centromere-associated protein E (Homo sapiens) (UniProt Q02224)", "assay": "Inhibition of CENP-E motor domain ATPase in human HCC1954 cells assessed as increase in 4n DNA content at 325 nM measured for 144 hrs by flow cytometry", "assay_type": "cell-based"}, "[6]": {"target": "Centromere-associated protein E (Homo sapiens) (UniProt Q02224)", "assay": "Inhibition of CENP-E motor domain ATPase in human HCC1954 cells assessed as increase in cyclin B level by Western blot analysis", "assay_type": "cell-based"}, "[7]": {"target": "Centromere-associated protein E (Homo sapiens) (UniProt Q02224)", "assay": "Inhibition of CENP-E motor domain ATPase in human HCC1954 cells assessed as increase in Ser10 phosphorylated histone H3 level by Western blot analysis", "assay_type": "cell-based"}, "HCC1954 [8]": {"tested_on": "HCC1954", "assay": "Induction of apoptosis in human HCC1954 cells assessed as increase in PARP cleavage measured for 145 hrs by Western blot analysis", "assay_type": "functional, cell-based"}, "SK-OV-3": {"tested_on": "SK-OV-3", "assay": "Induction of morphological change in human SK-OV-3 cells assessed as increase in mitotic cells with bipolar spindle formation of chromosomes at 50 nM measured for 24 to 32 hrs by microscopic analysis", "assay_type": "functional, cell-based", "settings": "time 24-32 hrs"}, "[9]": {"target": "Centromere-associated protein E (Homo sapiens) (UniProt Q02224)", "assay": "Inhibition of CENP-E motor domain ATPase in human HCC1954 cells expressing GFP-histone 2B assessed as increase in mitotic index at 0.2 ug/ml measured for 5 days on every 15 mins by PI staining based analysis", "assay_type": "cell-based", "settings": "dose 0.2 µg/ml, time 5.0 day"}, "[10]": {"target": "Centromere protein E (Canis lupus familiaris) (UniProt A0A8P0P634)", "sequence (A0A8P0P634 as listed by the source)": "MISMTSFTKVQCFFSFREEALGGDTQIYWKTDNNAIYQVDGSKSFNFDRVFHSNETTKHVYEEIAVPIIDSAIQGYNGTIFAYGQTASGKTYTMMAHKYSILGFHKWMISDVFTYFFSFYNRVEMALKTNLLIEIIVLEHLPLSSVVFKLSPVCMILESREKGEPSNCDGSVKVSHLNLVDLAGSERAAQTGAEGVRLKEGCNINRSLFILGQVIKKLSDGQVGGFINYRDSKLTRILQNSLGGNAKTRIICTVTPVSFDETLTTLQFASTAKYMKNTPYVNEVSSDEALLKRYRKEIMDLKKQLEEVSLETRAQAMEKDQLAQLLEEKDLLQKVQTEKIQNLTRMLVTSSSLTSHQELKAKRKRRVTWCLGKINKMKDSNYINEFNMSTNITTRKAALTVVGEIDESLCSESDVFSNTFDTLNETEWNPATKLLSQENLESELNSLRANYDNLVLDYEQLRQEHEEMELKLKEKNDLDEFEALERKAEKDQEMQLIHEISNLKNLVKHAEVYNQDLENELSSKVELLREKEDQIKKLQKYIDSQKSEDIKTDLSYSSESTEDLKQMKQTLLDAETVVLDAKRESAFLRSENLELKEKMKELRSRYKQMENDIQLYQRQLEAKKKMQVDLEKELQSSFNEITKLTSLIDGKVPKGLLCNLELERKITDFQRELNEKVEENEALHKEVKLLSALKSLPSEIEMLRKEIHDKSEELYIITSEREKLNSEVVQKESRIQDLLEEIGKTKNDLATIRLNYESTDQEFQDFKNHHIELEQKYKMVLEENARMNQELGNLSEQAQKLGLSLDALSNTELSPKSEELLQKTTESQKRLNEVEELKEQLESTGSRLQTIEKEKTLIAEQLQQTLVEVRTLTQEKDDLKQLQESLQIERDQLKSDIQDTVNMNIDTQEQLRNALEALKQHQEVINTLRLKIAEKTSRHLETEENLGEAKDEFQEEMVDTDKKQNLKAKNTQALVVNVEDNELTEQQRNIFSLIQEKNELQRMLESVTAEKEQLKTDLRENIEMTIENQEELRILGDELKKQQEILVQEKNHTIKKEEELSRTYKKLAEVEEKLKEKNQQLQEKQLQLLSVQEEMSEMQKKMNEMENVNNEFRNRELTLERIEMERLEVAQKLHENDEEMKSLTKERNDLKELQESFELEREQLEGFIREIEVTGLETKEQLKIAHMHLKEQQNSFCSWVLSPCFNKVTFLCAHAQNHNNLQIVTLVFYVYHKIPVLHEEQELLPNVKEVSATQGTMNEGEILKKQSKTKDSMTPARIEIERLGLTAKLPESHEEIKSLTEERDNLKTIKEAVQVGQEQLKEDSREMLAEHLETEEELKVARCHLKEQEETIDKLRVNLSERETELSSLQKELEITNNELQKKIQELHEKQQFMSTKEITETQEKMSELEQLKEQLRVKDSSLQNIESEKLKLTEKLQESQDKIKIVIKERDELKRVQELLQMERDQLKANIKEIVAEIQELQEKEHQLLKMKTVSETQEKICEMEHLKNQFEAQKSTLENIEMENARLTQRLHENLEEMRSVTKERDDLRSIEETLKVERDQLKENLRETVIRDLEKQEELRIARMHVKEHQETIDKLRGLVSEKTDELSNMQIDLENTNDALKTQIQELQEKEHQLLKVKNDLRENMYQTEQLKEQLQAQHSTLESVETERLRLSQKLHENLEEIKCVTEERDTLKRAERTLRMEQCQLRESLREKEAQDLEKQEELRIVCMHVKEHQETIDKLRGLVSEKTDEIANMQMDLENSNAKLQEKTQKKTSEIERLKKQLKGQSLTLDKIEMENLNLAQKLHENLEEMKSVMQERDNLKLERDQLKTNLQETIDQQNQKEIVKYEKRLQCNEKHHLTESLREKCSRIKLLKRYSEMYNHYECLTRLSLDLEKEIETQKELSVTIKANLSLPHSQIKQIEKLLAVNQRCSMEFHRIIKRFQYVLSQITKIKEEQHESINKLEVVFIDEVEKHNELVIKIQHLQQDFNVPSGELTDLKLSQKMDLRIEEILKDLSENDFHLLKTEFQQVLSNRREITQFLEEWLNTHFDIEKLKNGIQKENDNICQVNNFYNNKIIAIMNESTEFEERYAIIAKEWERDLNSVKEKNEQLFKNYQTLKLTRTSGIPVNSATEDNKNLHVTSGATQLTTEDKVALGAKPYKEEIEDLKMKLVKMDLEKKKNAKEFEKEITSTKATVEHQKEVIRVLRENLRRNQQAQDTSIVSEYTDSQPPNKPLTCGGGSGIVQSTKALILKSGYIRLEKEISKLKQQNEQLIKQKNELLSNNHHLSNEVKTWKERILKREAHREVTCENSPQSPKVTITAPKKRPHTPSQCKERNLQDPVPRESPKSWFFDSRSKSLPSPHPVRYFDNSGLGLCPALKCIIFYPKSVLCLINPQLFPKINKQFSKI", "assay": "Binding affinity to wild-type dog CENP-E assessed as ATPase activity"}, "Homo sapiens [11]": {"species": "Homo sapiens", "assay": "Binding affinity to human CENP-E T183A/K184T mutant assessed as ATPase activity"}, "COLO 205 [12]": {"tested_on": "COLO 205", "assay": "Induction of morphological change in human COLO 205 cells xenografted in mouse assessed as appearance of mitotic figures in tumor at 125 mg/kg measured after 24 hrs of single administration by H and E staining based analysis", "assay_type": "functional, organism-based"}, "COLO 205 [13]": {"tested_on": "COLO 205", "assay": "Induction of morphological change in human COLO 205 cells xenografted in mouse assessed as appearance of scattered apoptotic bodies in tumor at 125 mg/kg measured after 24 hrs of single administration by H and E staining based analysis", "assay_type": "functional, organism-based"}, "COLO 205 [14]": {"tested_on": "COLO 205", "assay": "Effect on cell cycle distribution in human COLO 205 cells xenografted in mouse assessed as increase in ratio of 4n to 2n nuclei measured after 24 hrs of single administration by flow cytometry", "assay_type": "functional, cell-based", "settings": "dose <= 125.0 mg/kg"}, "COLO 205 [15]": {"tested_on": "COLO 205", "assay": "Antitumor activity against human COLO 205 cells xenografted in mouse assessed as reduction in tumor volume administered intraperitoneally three doses daily on 2 consecutive weeks", "assay_type": "functional, cell-based", "settings": "dose 62.5-125 mg/kg, route ip, time 2.0 weeks"}, "Homo sapiens [16]": {"species": "Homo sapiens", "description": "Binding affinity to human CENP-E T183A/K184T mutant assessed as catalytic constant"}, "Homo sapiens [17]": {"species": "Homo sapiens", "remark": "listed apart in the source", "description": "Binding affinity to human CENP-E T183A/K184T mutant assessed as Km in presence of microtubule"}, "Homo sapiens [18]": {"species": "Homo sapiens", "remark": "listed apart in the source", "description": "Binding affinity to human CENP-E T183A/K184T mutant assessed as Km in presence of ATP"}, "[19]": {"target": "Centromere-associated protein E (Homo sapiens) (UniProt Q02224)", "description": "Binding affinity to C-terminal 6-his-tagged CENP-E (2 to 340 residues)(unknown origin) expressed in Escherichia coli BL21(DE3) assessed as compound dissociation by measuring t1/2"}, "[20]": {"tested_on": "CC(C)Oc1ccc(C(=O)N[C@H](CNC(=O)CN(C)C)Cc2ccc(-c3cn4cccc([C@H](C)O)c4n3)cc2)cc1Cl", "settings": "Canis lupus familiaris", "description": "Binding affinity to wild-type dog CENP-E assessed as catalytic constant"}, "[21]": {"tested_on": "CC(C)Oc1ccc(C(=O)N[C@H](CNC(=O)CN(C)C)Cc2ccc(-c3cn4cccc([C@H](C)O)c4n3)cc2)cc1Cl", "settings": "Canis lupus familiaris", "remark": "listed apart in the source", "description": "Binding affinity to wild-type dog CENP-E assessed as Km in presence of microtubule"}, "[22]": {"tested_on": "CC(C)Oc1ccc(C(=O)N[C@H](CNC(=O)CN(C)C)Cc2ccc(-c3cn4cccc([C@H](C)O)c4n3)cc2)cc1Cl", "settings": "Canis lupus familiaris", "remark": "listed apart in the source", "description": "Binding affinity to wild-type dog CENP-E assessed as Km in presence of ATP"}, "[23]": {"tested_on": "CC(C)Oc1ccc(C(=O)N[C@H](CNC(=O)CN(C)C)Cc2ccc(-c3cn4cccc([C@H](C)O)c4n3)cc2)cc1Cl", "settings": "Mus musculus", "description": "Binding affinity to wild-type mouse CENP-E assessed as catalytic constant"}, "[24]": {"tested_on": "CC(C)Oc1ccc(C(=O)N[C@H](CNC(=O)CN(C)C)Cc2ccc(-c3cn4cccc([C@H](C)O)c4n3)cc2)cc1Cl", "settings": "Mus musculus", "remark": "listed apart in the source", "description": "Binding affinity to wild-type mouse CENP-E assessed as Km in presence of microtubule"}, "[25]": {"tested_on": "CC(C)Oc1ccc(C(=O)N[C@H](CNC(=O)CN(C)C)Cc2ccc(-c3cn4cccc([C@H](C)O)c4n3)cc2)cc1Cl", "settings": "Mus musculus", "remark": "listed apart in the source", "description": "Binding affinity to wild-type mouse CENP-E assessed as Km in presence of ATP"}}, "note": "Active and inactive are the calls of the source. The rule behind the calls is not given here.", "data": [{"compound": "CNC(=O)C(Cc1ccc(C(=O)c2ccccc2)cc1)NC(=O)c1ccc(OC(C)C)c(Cl)c1", "note": "(stereo unspecified)", "values": [{"measurement": "alphaKi", "setting": "[1]", "result": 8, "unit": "nM"}, {"measurement": "Activity", "setting": "[2]", "result": "Active"}]}, {"compound": "Cc1cccn2cc(-c3ccc(C[C@@H](CCO)NC(=O)c4ccc(OC(C)C)c(C#N)c4)cc3)nc12", "values": [{"measurement": "alphaKi", "setting": "[3]", "result": 0.25, "unit": "nM"}, {"measurement": "Activity", "setting": "HCC1954 [4]", "result": "Active"}, {"measurement": "inhibition", "setting": "[5]", "result": "Active"}, {"measurement": "inhibition", "setting": "[6]", "result": "Active"}, {"measurement": "inhibition", "setting": "[7]", "result": "Active"}, {"measurement": "Activity", "setting": "HCC1954 [8]", "result": "Active"}, {"measurement": "Activity", "setting": "SK-OV-3", "result": "Active"}, {"measurement": "inhibition", "setting": "[9]", "result": "Active"}]}, {"compound": "CC(C)Oc1ccc(C(=O)N[C@H](CNC(=O)CN(C)C)Cc2ccc(-c3cn4cccc([C@H](C)O)c4n3)cc2)cc1Cl", "values": [{"measurement": "Activity", "setting": "[10]", "result": 0.32, "unit": "s⁻¹"}, {"measurement": "Activity", "setting": "Homo sapiens [11]", "result": 0.06, "unit": "s⁻¹"}, {"measurement": "Activity", "setting": "COLO 205 [12]", "result": "Active"}, {"measurement": "Activity", "setting": "COLO 205 [13]", "result": "Active"}, {"measurement": "Activity", "setting": "COLO 205 [14]", "result": "Dose-Dependent Effect"}, {"measurement": "Activity", "setting": "COLO 205 [15]", "result": "Dose-Dependent Effect"}, {"measurement": "kcat", "setting": "Homo sapiens [16]", "result": 12.1, "unit": "s⁻¹"}, {"measurement": "Km", "setting": "Homo sapiens [17]", "result": 1.81, "unit": "µM"}, {"measurement": "Km", "setting": "Homo sapiens [18]", "result": 20, "unit": "µM"}, {"measurement": "T1/2", "setting": "[19]", "result": 10.2, "unit": "h"}]}, {"compound": "Centromere protein E (Canis lupus familiaris), A0A8P0P634", "values": [{"measurement": "kcat", "setting": "[20]", "result": 11.1, "unit": "s⁻¹"}, {"measurement": "Km", "setting": "[21]", "result": 0.38, "unit": "µM"}, {"measurement": "Km", "setting": "[22]", "result": 34, "unit": "µM"}]}, {"compound": "Centromere-associated protein E (Mus musculus), Q6RT24", "values": [{"measurement": "kcat", "setting": "[23]", "result": 10.1, "unit": "s⁻¹"}, {"measurement": "Km", "setting": "[24]", "result": 0.55, "unit": "µM"}, {"measurement": "Km", "setting": "[25]", "result": 25, "unit": "µM"}]}]}
